How the values were obtained:
[1] = tested on: tracheal smooth muscle of guinea pig; assay: Relaxation of CCh-induced constriction of isolated guinea pig tracheal smooth muscle (Experimental Example 1); details: for Onset time (min) ± SD / Time for eliminating inhibition effect (min): CCh 3 × 10^−6 mol/L, in vitro; for EC50: Cavia porcellus, read-out: EC50 (μM) ± SD
Description: The upper end was connected with a muscle tension transducer, and the specimen was given a resting tension of 1.0 g. Muscle tension changes were recorded, nutrient solution was changed every 20 min, and the experiment was started after 60 min of equilibrium.
Administration Method: After the trachea flake were stabilized, 3×10^−6 mol/L CCh was added to the bath. […] Diastolic condition of the trachea flake was observed. If no response occurred (below the threshold concentration), the next dosage was continued to be added in the order. If any response occurred, the next dosage was added until its diastolic platform was reached. The above operation was repeated until the shrink curve reached the minimum. Finally, 10^−6 mol/L isoproterenol was added to establish maximum relaxation, and the curve was recorded.
Statistical Methods: Statistics was performed using the Sigma Stat statistical software package, the data was analyzed by using the variance analysis. Student-Newman-Keuls (SNK) test was used in comparison among multiple sample averages number. The statistical test level was α=0.05 (bilateral).

[2] = target: T1, human recombinant β2 adrenoceptor (Homo sapiens, UniProt P07550); assay: cell-based; format: cell-based; details: EC50 (β1)/EC50 (β2)
T1 construct: expressed in transfected cells
T1 sequence (P07550 whole entry): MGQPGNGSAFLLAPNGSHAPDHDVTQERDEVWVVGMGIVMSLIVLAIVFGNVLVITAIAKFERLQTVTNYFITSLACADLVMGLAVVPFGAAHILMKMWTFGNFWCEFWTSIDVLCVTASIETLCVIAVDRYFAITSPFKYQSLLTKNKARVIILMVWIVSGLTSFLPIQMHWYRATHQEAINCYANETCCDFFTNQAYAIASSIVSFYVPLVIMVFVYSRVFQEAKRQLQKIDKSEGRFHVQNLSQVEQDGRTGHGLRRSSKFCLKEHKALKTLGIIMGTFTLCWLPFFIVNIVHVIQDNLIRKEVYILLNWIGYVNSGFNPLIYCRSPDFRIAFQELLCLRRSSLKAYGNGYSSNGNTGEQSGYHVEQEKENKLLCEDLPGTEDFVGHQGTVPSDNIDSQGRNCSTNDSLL

| SMILES | Onset time (min) ± SD [1] | Time for eliminating inhibition effect (min) [1] | EC50 [1] | sel (β1/β2) [2] |
| --- | --- | --- | --- | --- |
| O=CNc1cc(C(O)CNCCOCCOCC[N+]23CCC(CC2)C(OCC(O)(c2ccccc2)C2CCCC2)C3)ccc1O [Compound 46, (R)-(−)-3-[(R)-2-hydroxy-2-cyclopentyl-2-phenyl]ethoxy-1-{2-[2-(2-{(R)-[2-hydroxy-2-(3-formamido-4-hydroxy)phenyl]ethylamino}ethoxy)ethoxy]ethyl}-1-azabicyclo[2,2,2]octylonium chloride] | 6.75 ± 0.33 min | more than 300 min | 0.136 ± 0.068 µM | 68.9 |
| O=c1ccc2c([C@@H](O)CNCCOCCOCC[N+]34CCC(CC3)[C@@H](OC[C@@](O)(c3ccccc3)C3CCCC3)C4)ccc(O)c2[nH]1.[Cl-] [Compound 50] | 6.76 ± 0.32 min | more than 300 min | 0.0135 ± 0.0092 µM | 56.9 |
| OCc1cc([C@@H](O)CNCCc2ccc(OCC[N+]34CCC(CC3)[C@@H](OC[C@@](O)(c3ccccc3)C3CCCC3)C4)cc2)ccc1O [Compound 57, (R)-(−)-3-[(R)-2-hydroxy-2-cyclopentyl-2-phenyl)]ethoxy-1-{2-[4-(2-{[(R)-[2-(3-hydroxymethyl-4-hydroxy)phenyl-2-hydroxy]ethylamino}ethyl)phenoxy]ethyl}-1-azabicyclo[2,2,2]octylonium bromide] | 6.03 ± 0.18 min | more than 300 min | 0.0265 ± 0.016 µM | 68.8 |
| O=c1ccc2c([C@@H](O)CNCc3ccc(OCCC[N+]45CCC(CC4)[C@@H](OC[C@@](O)(c4ccccc4)C4CCCC4)C5)cc3)ccc(O)c2[nH]1 [Compound 58, (R)-(−)-3-[(R)-2-hydroxy-2-cyclopentyl-2-phenyl]ethoxy-1-{3-[4-(1-{(R)-[2-hydroxy-2-(8-hydroxy-2-oxo-1,2-dihydroquinolin-5-yl)]ethylamino}methyl)phenoxy]propyl}-1-azabicyclo[2,2,2]octylonium bromide] | 5.56 ± 0.24 min | more than 300 min | 0.0131 ± 0.0088 µM | 89.8 |
| CC(C)(Cc1ccc(OCC[N+]23CCC(CC2)[C@@H](OC[C@@](O)(c2ccccc2)C2CCCC2)C3)cc1)NC[C@H](O)c1cc(O)cc2c1OCC(=O)N2 [Compound 60, (R)-(−)-3-[(R)-2-hydroxy-2-cyclopentyl-2-phenyl]ethoxy-1-{2-[4-(2-{(R)[-2-hydroxy-2-(6-hydroxy-2H-1,4-benzoxazin-3(4H)-one-8-yl)]ethylamino}isobutyl)phenoxy]ethyl}-1-azabicyclo[2,2,2]octylonium bromide] | 6.59 ± 0.43 min | more than 300 min | 0.0523 ± 0.018 µM | 12.3 |
| CCC(NC[C@H](O)c1ccc(O)c2[nH]c(=O)ccc12)c1ccc(OCCC[N+]23CCC(CC2)[C@@H](OC[C@@](O)(c2ccccc2)C2CCCC2)C3)cc1 (stereo partly drawn) [Compound 62, (R)-(−)-3-[(R)-2-hydroxy-2-cyclopentyl-2-phenyl]ethoxy-1-{3-[4-(1-{(R)-[2-hydroxy-2-(8-hydroxy-2-oxo-1,2-dihydroquinolin-5-yl)]ethylamino}propylidene)phenoxy]propyl}-1-azabicyclo[2,2,2]octylonium bromide] | 7.02 ± 0.22 min | more than 300 min | 0.0351 ± 0.01 µM | 126.7 |
| CC(C)(NC[C@H](O)c1ccc(O)c(CO)c1)c1ccc(OCCC[N+]23CCC(CC2)[C@@H](OC[C@@](O)(c2ccccc2)C2CCCC2)C3)cc1.[Br-] [Compound 71] | 6.92 ± 0.26 min | more than 300 min | 0.019 ± 0.0061 µM | 468.2 |
| CC(Cc1ccc(OCC[N+]23CCC(CC2)[C@@H](OC[C@@](O)(c2ccccc2)C2CCCC2)C3)cc1)NC[C@H](O)c1ccc(O)c(CO)c1.[Br-] (stereo partly shown) [Compound 75] | 6.38 ± 0.35 min | more than 300 min | 0.176 ± 0.031 µM | 56.8 |
| O=c1ccc2c([C@@H](O)CNCCc3ccc(OCCC[N+]45CCC(CC4)[C@@H](OC[C@@](O)(c4ccc(Cl)cc4)C4CCCC4)C5)cc3)ccc(O)c2[nH]1.[Br-] [Compound 78] | 6.48 ± 0.38 min | more than 300 min | 0.0137 ± 0.0078 µM | 108.6 |
| CC(C)(NC[C@H](O)c1ccc(O)c2[nH]c(=O)ccc12)c1ccc(OCCC[N+]23CCC(CC2)[C@@H](OC[C@@](O)(c2ccccc2)C2CCCC2)C3)cc1 [Compound 84] | 6.78 ± 0.18 min | more than 300 min | 0.0251 ± 0.0086 µM | 238.8 |
| CCC(NC[C@H](O)c1ccc(O)c(NC=O)c1)c1ccc(OCCC[N+]23CCC(CC2)[C@@H](OC[C@@](O)(c2ccccc2)C2CCCC2)C3)cc1.[Br-] (stereo partly shown) [Compound 97] | 6.36 ± 0.22 min | more than 300 min | 0.0167 ± 0.0062 µM | 56.7 |
| O=C1COc2c(cc(O)cc2[C@@H](O)CNCc2ccc(OCCC[N+]34CCC(CC3)[C@@H](OC[C@@](O)(c3ccccc3)C3CCCC3)C4)cc2)N1 [Compound 102] | 5.78 ± 0.23 min | more than 300 min | 0.0371 ± 0.019 µM | 102.6 |
| O=C1COc2c(cc(O)cc2[C@@H](O)CNCCCc2ccc(OCCC[N+]34CCC(CC3)[C@@H](OC[C@@](O)(c3ccccc3)C3CCCC3)C4)cc2)N1 [Compound 104] | 6.67 ± 0.17 min | more than 300 min | 0.0106 ± 0.0079 µM | 29.6 |
| O=C1COc2c(cc(O)cc2[C@@H](O)CNCc2cc(Cl)c(OCCC[N+]34CCC(CC3)[C@@H](OC[C@@](O)(c3ccccc3)C3CCCC3)C4)c(Cl)c2)N1.[Br-] [Compound 106] | 6.26 ± 0.24 min | more than 300 min | 0.0183 ± 0.0086 µM | 288.9 |
| OCc1cc([C@@H](O)CNCCOc2ccc(OCC[N+]34CCC(CC3)[C@@H](OC[C@@](O)(c3ccccc3)C3CCCC3)C4)cc2)ccc1O [Compound 114, (R)-(−)-3-[(R)-2-hydroxy-2-cyclopentyl-2-phenyl]ethoxy-1-{2-[4-(2-{(R)-[2-(3-hydroxymethyl-4-hydroxy)phenyl-2-hydroxy]ethylamino}ethyoxyl)phenoxy]ethyl}-1-azabicyclo[2,2,2]octylonium bromide] | 6.24 ± 0.13 min | more than 300 min | – | 98.9 |
| COc1cc(CNCC(O)c2ccc(O)c3[nH]c(=O)ccc23)c(Cl)cc1NC(=O)CC[N+]12CCC(CC1)C(OCC(O)(c1ccccc1)C1CCCC1)C2 [Compound 115, (R)-(−)-3-[(R)-2-hydroxy-2-cyclopentyl-2-phenyl]ethoxy-1-{3-[5-chloro-2-methoxy-4-({(R)-[2-hydroxy-2-(8-hydroxy-2-oxo-1,2-dihydroquinolin-5-yl)]ethylamino}methyl)anilino]oxopropyl}-1-azabicyclo[2,2,2]octylonium bromide] | 6.82 ± 0.36 min | more than 300 min | 0.0237 ± 0.01 µM | 85.5 |
| O=C(CC[N+]12CCC(CC1)[C@@H](OC[C@@](O)(c1ccccc1)C1CCCC1)C2)Nc1ccc(CNC[C@H](O)c2cc(O)cc3c2OCC(=O)N3)cc1 [Compound 116, (R)-(−)-3-[(R)-2-hydroxy-2-cyclopentyl-2-phenyl]ethoxy-1-{3-[4-({(R)-[2-hydroxy-2-(6-hydroxy-2H-1,4-benzoxazin-3(4H)-one-8-yl)]ethylamino}methyl)anilino]oxopropyl}-1-azabicyclo[2,2,2]octylonium bromide] | 6.28 ± 0.56 min | more than 300 min | 0.0267 ± 0.0072 µM | 68.8 |
| CC(NC[C@H](O)c1ccc(O)c(NC=O)c1)c1ccc(COCC[N+]23CCC(CC2)[C@@H](OC[C@@](O)(c2ccccc2)C2CCCC2)C3)cc1 (stereo partly drawn) [Compound 117, (R)-(−)-3-[(R)-2-hydroxy-2-cyclopentyl-2-phenyl]ethoxy-1-{2-[4-(2-{(R)-[2-hydroxy-2-(3-formamido-4-hydroxy)phenyl]ethylamino}ethylidene)benzyloxy]ethyl}-1-azabicyclo[2,2,2]octylonium bromide] | 5.96 ± 0.21 min | more than 300 min | 0.0217 ± 0.0081 µM | 39.8 |
| O=C1COc2c(cc(O)cc2[C@@H](O)CNCCOCc2ccc(COCC[N+]34CCC(CC3)[C@@H](OC[C@@](O)(c3ccccc3)C3CCCC3)C4)cc2)N1 [Compound 118, (R)-(−)-3-[(R)-2-hydroxy-2-cyclopentyl-2-phenyl]ethoxy-1-{2-[4-(2-{(R)-[2-hydroxy-2-(6-hydroxy-2H-1,4-benzoxazin-3(4H)-one-8-yl)]ethylamino}ethoxymethyl)benzyloxy]ethyl}-1-azabicyclo[2,2,2]octylonium bromide] | 6.24 ± 0.41 min | more than 300 min | 0.0241 ± 0.012 µM | 23.8 |
| Cc1cc(CNC[C@H](O)c2ccc(O)c(NC=O)c2)ccc1NC(=O)CC[N+]12CCC(CC1)[C@@H](OC[C@@](O)(c1ccccc1)C1CCCC1)C2.[Br-] [Compound 140] | 6.18 ± 0.18 min | more than 300 min | 0.0235 ± 0.0054 µM | 86.9 |

Source: US11447485B2, “Class of bifunctional compounds with quanternary ammonium salt structure” (Beijing Showby Pharmaceutical Co., Ltd., priority 2016, dated 2022)
